The results in this text go back to ChEMBL document CHEMBL1177740, “Steroidal saponins from two species of Dracaena” (J Nat Prod, 2010).

One assay deals with HT-29. As to the kind of experiment: Cytotoxicity against human HT-29 cells by MTT assay. In kind it is functional, cell-based. On the technique in general: Tetrazolium dyes change colour on reduction, which living cells bring about.
Another assay has as its system HCT-116. In words: Cytotoxicity against human HCT116 cells by MTT assay. It counts as functional, cell-based.

One may read the IC50 as the concentration that gives 50% inhibition. For `C[C@@H]1CC[C@]2(OC1)O[C@H]1C[C@H]3[C@@H]4CC=C5C[C@@H](O[C@@H]6O[C@H](CO)[C@@H](O)[C@H](O[C@@H]7O[C@@H](C)[C@H](O)[C@@H](O)[C@H]7O)[C@H]6O[C@@H]6O[C@@H](C)[C@H](O)[C@@H](O)[C@H]6O)CC[C@]5(C)[C@H]4CC[C@]3(C)[C@@]1(O)[C@@H]2C`, the IC50 came out at 1.67 µM with HT-29 and 2.04 µM in the assay on HCT-116.

Regarding `C=C1CO[C@@]2(O[C@H]3C[C@H]4[C@@H]5CC=C6C[C@@H](O)C[C@@H](O[C@@H]7OC[C@H](O)[C@H](O[C@@H]8OC[C@@H](O)[C@H](O)[C@H]8O[C@@H]8O[C@@H](C)[C@H](O)[C@@H](O)[C@H]8O)[C@H]7O)[C@]6(C)[C@H]5CC[C@]4(C)[C@H]3[C@@H]2C)[C@@H](O)[C@H]1O[C@@H]1OC[C@H](O)[C@H](O)[C@H]1O`, the figures for the half-maximal inhibitory concentration (IC50) in the assay on HT-29 and in the assay on HCT-116 were 29.5 µM and 29 µM, respectively.

With `CC(=O)OC[C@H]1O[C@@H](O[C@H]2CC[C@@]3(C)C(=CC[C@@H]4[C@@H]3CC[C@@]3(C)[C@H]4C[C@@H]4O[C@@]5(CC[C@@H](C)CO5)[C@@H](C)[C@@]43O)C2)[C@H](O[C@@H]2O[C@@H](C)[C@H](O)[C@@H](O)[C@H]2O)[C@@H](O[C@@H]2O[C@@H](C)[C@H](O)[C@@H](O)[C@H]2O)[C@@H]1O` [ARBOREASAPONIN A], the values for the IC50 in the assay with HT-29 and in the assay with HCT-116 were 8.54 µM and 7.6 µM, respectively.

As to `C[C@@H]1O[C@@H](O[C@H]2[C@H](O[C@H]3CC[C@@]4(C)C(=CC[C@@H]5[C@@H]4CC[C@@]4(C)[C@H]5C[C@@H]5O[C@@]6(C[C@@H](O)[C@@H](C)CO6)[C@@H](C)[C@@]54O)C3)O[C@H](CO)[C@@H](O)[C@@H]2O[C@@H]2O[C@@H](C)[C@H](O)[C@@H](O)[C@H]2O)[C@H](O)[C@H](O)[C@H]1O` [ARBOREASAPONIN B], the IC50 with HT-29 and with HCT-116 was 100 µM in each case.

As for `C=C1CO[C@]2(O[C@H]3C[C@H]4[C@@H]5CC=C6C[C@@H](O)C[C@@H](O[C@@H]7O[C@H](C)[C@H](O)[C@H](O[C@@H]8O[C@@H](C)[C@H](O)[C@@H](O)[C@H]8O)[C@H]7O[C@@H]7OC[C@@H](O)[C@H](O)[C@H]7O)[C@]6(C)[C@H]5CC[C@]4(C)[C@H]3[C@@H]2C)[C@@H](O)[C@H]1O[C@@H]1OC[C@H](O)[C@H](O)[C@H]1O` [DEISTELIANOSIDE B], the IC50 in the assay with HT-29 was 70.7 µM; with HCT-116, 21.2 µM.

`C[C@@H]1CC[C@@]2(OC1)O[C@H]1C[C@H]3[C@@H]4CC=C5C[C@@H](O[C@@H]6O[C@H](CO)[C@@H](O)[C@H](O[C@@H]7O[C@@H](C)[C@H](O)[C@@H](O)[C@H]7O)[C@H]6O)CC[C@]5(C)[C@H]4CC[C@]3(C)[C@@]1(O)[C@@H]2C` [MANIOSIDE A]: the figures for the IC50 in the assay on HT-29 and in the assay with HCT-116 were 56.2 µM and 43 µM, respectively.

Take `CC(=O)O[C@H]1C(=O)[C@@]2(C)[C@H]([C@H](OC(=O)c3ccccc3)[C@]3(O)C[C@H](OC(=O)[C@H](O)[C@@H](NC(=O)c4ccccc4)c4ccccc4)C(C)=C1C3(C)C)[C@]1(OC(C)=O)CO[C@@H]1C[C@@H]2O` [PACLITAXEL]: the figures for the IC50 in the assay on HT-29 and in the assay with HCT-116 were 0.0014 µM and 0.00321 µM, respectively.
